# Assay: Differential scanning calorimetry (DSC) of sorbitol grades
# Type: physicochemical
# Conditions: sorbitol grades used as binder
# Description: Different grades of sorbitol were then investigated in order to further reduce the energy required to generate good water soluble granules. Samples were analyzed via differential scanning calorimetry (DSC) in order to determine the sorbitol grade with the lowest melt energy. When using sorbitol grade Xtab300S (available at Roquette®) as a binder, the energy required to generate good water-soluble granules is lower than the other grades (cf. Table below).
row,Structure (SMILES),Melt Energy
1,"OC[C@@H](O)[C@@H](O)[C@H](O)[C@@H](O)CO [Example P100C, sorbitol]",181.9 J/g
2,"OC[C@@H](O)[C@@H](O)[C@H](O)[C@@H](O)CO [Example P300C, sorbitol]",180.3 J/g
3,"OC[C@@H](O)[C@@H](O)[C@H](O)[C@@H](O)CO [Example P550SD, sorbitol]",165.1 J/g
4,"OC[C@@H](O)[C@@H](O)[C@H](O)[C@@H](O)CO [Example P650C, sorbitol]",174.9 J/g
5,"OC[C@@H](O)[C@@H](O)[C@H](O)[C@@H](O)CO [Xtab200S, sorbitol]",161.7 J/g
6,"OC[C@@H](O)[C@@H](O)[C@H](O)[C@@H](O)CO [Xtab300S, sorbitol]",126.5 J/g
